System: TEAD-dependent transcription
Assay: TEAD-dependent transcription cell-based reporter assay (MSTO-211H+12XGTIIC luciferase)
Parameters: species or system human
Conditions: Homo sapiens; MSTO-211H+12XGTIIC cell line, luciferase signal normalized to cell viability, 24 hours compound incubation; read-out: MSTO-211H GMean IC50 (uM) Cell Assay Reporter Cell Variant: TEAD
In short: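 MSTO-211H mesothelioma cells stably carrying a 12xGTIIC TEAD-response-element luciferase reporter, treated with serial compound dilutions for 24 h at 37 °C. Luminescence normalized to CellTiter-Fluor viability signal; % inhibition versus DMSO and 20 μM K-975 controls, IC50 by nonlinear regression.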

SMILES | IC50
C=CC(=O)NCC(=O)N1CCc2ccc(Oc3ccc(C(F)(F)F)c(F)c3)cc2C1 [P-0115, N-(2-(7-(3-fluoro-4-(trifluoromethyl)phen-oxy)-3,4-dihydroisoquin-olin-2(1H)-yl)-2-oxoeth-yl)acrylamide] | 0.001 to 10 µM
CP(C)(=O)CCC(=O)N1CCc2ccc(Oc3ccc(C(F)(F)F)cc3)cc2C1 [P-0041, 3-(dimethylphosphoryl)-1-(7-(4-(trifluorometh-yl)phenoxy)-3,4-dihydro-isoquinolin-2(1H)-yl)-propan-1-one] | 0.001 to 10 µM
O=C(CCC(=O)C(F)(F)F)N1CCc2ccc(Oc3ccc(C(F)(F)F)cc3)cc2C1 [P-0076, 5,5,5-trifluoro-1-(7-(4-(trifluoromethyl)phen-oxy)-3,4-dihydroisoquin-olin-2(1H)-yl)pentane-1,4-dione] | 0.001 to 10 µM
O=C(CNS(=O)(=O)C1CC1)N1CCc2ccc(Oc3ccc(C(F)(F)F)c(F)c3)cc2C1 [P-0117, N-(2-(7-(3-fluoro-4-(trifluoromethyl)phen-oxy)-3,4-dihydroisoquin-olin-2(1H)-yl)-2-oxoeth-yl)cyclopropanesulfon-amide] | 0.001 to 10 µM
O=C=CCC(=O)N1CCc2ccc(Oc3ccc(C(F)(F)F)cc3)cc2C1 [P-0166, 4-(7-(4-(trifluoromethyl)-phenoxy)-3,4-dihydroiso-quinolin-2(1H)-yl)but-1-ene-1,4-dione] | 0.001 to 10 µM
C=C(C)OC(=O)N1CCc2ccc(Oc3ccc(C(F)(F)F)cc3)cc2C1 [P-0036, prop-1-en-2-yl 7-(4-(trifluoromethyl)phen-oxy)-3,4-dihydroiso-quinoline-2(1H)-carbox-ylate] | 0.001 to 10 µM
NS(=O)(=O)NCC(=O)N1CCc2ccc(Oc3ccc(C(F)(F)F)cc3)cc2C1 [P-0054, N-(2-(7-(4-(trifluorometh-yl)phenoxy)-3,4-dihydro-isoquinolin-2(1H)-yl)-2-oxoethyl)sulfamide] | 0.001 to 10 µM
O=C(c1cc(C(F)F)[nH]n1)N1CCc2ccc(Oc3ccc(C(F)(F)F)cc3)cc2C1 [P-0103, (5-(difluoromethyl)-1H-pyrazol-3-yl)(7-(4-(trifluoromethyl)phen-oxy)-3,4-dihydroisoquin-olin-2(1H)-yl)methanone] | 0.001 to 10 µM
CS(=O)(=O)CC(=O)N1CCc2ccc(Oc3ccc(C(F)(F)F)cc3)cc2C1 [P-0078, 2-(methylsulfonyl)-1-(7-(4-(trifluoromethyl)phen-oxy)-3,4-dihydroisoquin-olin-2(1H)-yl)ethan-1-one] | 0.001 to 10 µM
CCC1c2cc(Oc3ccc(C(F)(F)F)cc3)ccc2CCN1C(=O)CCS(C)(=O)=O (stereo not drawn) [P-0209, 1-(1-ethyl-7-(4-(trifluoro-methyl)phenoxy)-3,4-dihydroisoquinolin-2(1H)-yl)-3-(methylsul-fonyl)propan-1-one] | 0.001 to 10 µM
CS(=O)(=O)N1CC(C(=O)N2CCc3ccc(Oc4ccc(C(F)(F)F)cc4)cc3C2)C1 [P-0080, (1-(methylsulfonyl)azeti-din-3-yl)(7-(4-(trifluoro-methyl)phenoxy)-3,4-dihydroisoquinolin-2(1H)-yl)methanone] | 0.001 to 10 µM
O=C(CCO)N1CCc2ccc(Oc3ccc(C(F)(F)F)cc3)cc2C1 [P-0067, 3-hydroxy-1-(7-(4-(trifluoromethyl)phen-oxy)-3,4-dihydroiso-quinolin-2(1H)-yl)-propan-1-one] | 0.001 to 10 µM
O=C1CC(CC(=O)N2CCc3ccc(Oc4ccc(C(F)(F)F)cc4)cc3C2)C(=O)N1 (stereo not drawn) [P-0043, 3-(2-oxo-2-(7-(4-(trifluoromethyl)phen-oxy)-3,4-dihydroiso-quinolin-2(1H)-yl)ethyl)-pyrrolidine-2,5-dione] | 0.001 to 10 µM
Cc1noc(CCC(=O)N2CCc3ccc(Oc4ccc(C(F)(F)F)cc4)cc3C2)n1 [P-0062, 3-(3-methyl-1,2,4-oxadi-azol-5-yl)-1-(7-(4-(trifluoromethyl)phen-oxy)-3,4-dihydroisoquin-olin-2(1H)-yl)propan-1-one] | 0.001 to 10 µM
CS(=O)(=O)CCNC(=O)N1CCc2c(cccc2-c2ccc(C(F)(F)F)cc2)C1 [P-0276, N-(2-(methylsulfonyl)-ethyl)-5-(4-(trifluoro-methyl)phenyl)-3,4-dihydroisoquinoline-2(1H)-carboxamide] | 0.001 to 10 µM
O=C(CCS(=O)(=O)C(F)(F)F)N1CCc2c(cccc2Oc2ccc(C(F)(F)F)cc2)C1 [P-0254, 1-(5-(4-(trifluorometh-yl)phenoxy)-3,4-dihydro-isoquinolin-2(1H)-yl)-3-((trifluoromethyl)sul-fonyl)propan-1-one] | 0.001 to 10 µM
O=C(CCS(=O)(=O)C(F)(F)F)N1CCc2ccc(Oc3ccc(Cl)cc3)cc2C1 [P-0091, 1-(7-(4-chlorophenoxy)-3,4-dihydroisoquinolin-2(1H)-yl)-3-((trifluoro-methyl)sulfonyl)propan-1-one] | 0.001 to 10 µM
C=CC(=O)N1CCC(C(=O)N2CCc3ccc(Oc4ccc(C(F)(F)F)c(F)c4)cc3C2)CC1 [P-0121, 1-(4-(7-(3-fluoro-4-(trifluoromethyl)phen-oxy)-1,2,3,4-tetrahydro-isoquinoline-2-carbon-yl)piperidin-1-yl)prop-2-en-1-one] | 0.001 to 10 µM

SMILES | IC50
O=C(CCc1cnc[nH]1)N1CCc2c(cccc2Oc2ccc(C(F)(F)F)cc2)C1 [P-0243, 3-(1H-imidazol-5-yl)-1-(5-(4-(trifluoromethyl)-phenoxy)-3,4-dihydroiso-quinolin-2(1H)-yl)pro-pan-1-one] | 0.001 to 10 µM
NC(=O)NCC(=O)N1CCc2c(cccc2Oc2ccc(C(F)(F)F)cc2)C1 [P-0270, 1-(2-oxo-2-(5-(4-(trifluoromethyl)phen-oxy)-3,4-dihydroisoquin-olin-2(1H)-yl)ethyl)urea] | 0.001 to 10 µM
NS(=O)(=O)CC(=O)N1CCc2ccc(Oc3ccc(C(F)(F)F)cc3)cc2C1 [P-0125, 2-oxo-2-(7-(4-(trifluoro-methyl)phenoxy)-3,4-dihydroisoquinolin-2(1H)-yl)ethane-1-sul-fonamide] | 0.001 to 10 µM
O=C(NC1CC1)N1CCc2ccc(Oc3ccc(C(F)(F)F)cc3)cc2C1 [P-0004, N-cyclopropyl-7-(4-(trifluoromethyl)phen-oxy)-3,4-dihydroiso-quinoline-2(1H)-carbox-amide] | 0.001 to 10 µM
O=C(Cc1ncc[nH]1)N1CCc2ccc(Oc3ccc(C(F)(F)F)c(F)c3)cc2C1 [P-0152, 1-(7-(3-fluoro-4-(trifluoromethyl)phen-oxy)-3,4-dihydroisoquin-olin-2(1H)-yl)-2-(1H-imidazol-2-yl)ethan-1-one] | 0.001 to 10 µM
CS(=O)(=O)CCC(=O)N1CCc2ccc(Oc3ccc(C(F)(F)F)cc3)c(-c3cnn(CC4CC4)c3)c2C1 [P-0206, 1-(8-(1-(cyclopropyl-methyl)-1H-pyrazol-4-yl)-7-(4-(trifluorometh-yl)phenoxy)-3,4-dihydro-isoquinolin-2(1H)-yl)-3-(methylsulfonyl)-propan-1-one] | 0.001 to 10 µM
O=C(NC1CCOC1)N1CCc2ccc(Oc3ccc(C(F)(F)F)cc3)cc2C1 (stereo not drawn) [P-0038, N-(tetrahydrofuran-3-yl)-7-(4-(trifluorometh-yl)phenoxy)-3,4-dihydro-isoquinoline-2(1H)-carboxamide] | 0.001 to 10 µM
O=C1CCC(C(=O)N2CCc3ccc(Oc4ccc(C(F)(F)F)cc4)cc3C2)CN1 (stereo not drawn) [P-0129, 5-(7-(4-(trifluoromethyl)-phenoxy)-1,2,3,4-tetra-hydroisoquinoline-2-carbonyl)piperidin-2-one] | 0.001 to 10 µM
Nc1cncc(C(=O)N2CCc3c(cccc3Oc3ccc(C(F)(F)F)cc3)C2)n1 [P-0244, (6-aminopyrazin-2-yl)(5-(4-(trifluoromethyl)phen-oxy)-3,4-dihydroisoquin-olin-2(1H)-yl)methanone] | 0.001 to 10 µM
C[S+]([O-])CCC(=O)N1CCc2ccc(Oc3ccc(C(F)(F)F)cc3)cc2C1 (stereo not drawn) [P-0056, 3-(methylsulfinyl)-1-(7-(4-(trifluoromethyl)phen-oxy)-3,4-dihydroisoquin-olin-2(1H)-yl)propan-1-one] | 0.001 to 10 µM
N#CC1(CC(=O)N2CCc3ccc(Oc4ccc(C(F)(F)F)cc4)cc3C2)CC1 [P-0060, 1-(2-oxo-2-(7-(4-(trifluoromethyl)phen-oxy)-3,4-dihydroiso-quinolin-2(1H)-yl)-ethyl)cyclopropane-1-carbonitrile] | 0.001 to 10 µM
CN(C)C(=O)CN1CCc2ccc(Oc3ccc(C(F)(F)F)cc3)cc2C1 [P-0027, N,N-dimethyl-2-(7-(4-(trifluoromethyl)phen-oxy)-3,4-dihydroisoquin-olin-2(1H)-yl)acetamide] | 0.001 to 10 µM
CS(=O)(=O)NCC(=O)N1CCc2ccc(Oc3ccc(C(F)(F)F)cc3)cc2C1 [P-0071, N-(2-oxo-2-(7-(4-(trifluoromethyl)phen-oxy)-3,4-dihydroisoquin-olin-2(1H)-yl)ethyl)-methanesulfonamide] | 0.001 to 10 µM
CCS(=O)(=O)NC(=O)N1CCc2c(cccc2Oc2ccc(C(F)(F)F)cc2)C1 [P-0238, N-(ethylsulfonyl)-5-(4-(trifluoromethyl)phen-oxy)-3,4-dihydroisoquin-oline-2(1H)-carboxamide] | 0.001 to 10 µM
NC(=O)NCC(=O)N1CCc2c(cccc2-c2ccc(C(F)(F)F)cc2)C1 [P-0272, 1-(2-oxo-2-(5-(4-(trifluoromethyl)phen-yl)-3,4-dihydroisoquin-olin-2(1H)-yl)ethyl)urea] | 0.001 to 10 µM
C=CS(=O)(=O)N1CCC(C(=O)N2CCc3ccc(Oc4ccc(C(F)(F)F)c(F)c4)cc3C2)C1 (stereo not drawn) [P-0158, (7-(3-fluoro-4-(trifluoro-methyl)phenoxy)-3,4-dihydroisoquinolin-2(1H)-yl)(1-(vinylsul-fonyl)pyrrolidin-3-yl)-methanone] | 0.001 to 10 µM
Nc1nccc(C(=O)N2CCc3ccc(Oc4ccc(C(F)(F)F)cc4)cc3C2)n1 [P-0092, (2-aminopyrimidin-4-yl)-(7-(4-(trifluoromethyl)-phenoxy)-3,4-dihydroiso-quinolin-2(1H)-yl)meth-anone] | 0.001 to 10 µM
O=C(CC1CCCCC1)N1CCc2c(cccc2Oc2ccc(C(F)(F)F)cc2)C1 [P-0267, 2-cyclohexyl-1-(5-(4-(trifluoromethyl)phen-oxy)-3,4-dihydroisoquin-olin-2(1H)-yl)ethan-1-one] | 10 to 100 µM
